{
  "source": "paper PMC6058667",
  "about": "(Drug Delivery, 2018)",
  "key": {"HepG-2 cells": {"system": "HepG-2 cells", "test": "MTT cytotoxicity assay", "type": "cell-based", "conditions": "HepG-2 hepatoma cell line, 48 h", "method": "The in vitro cytotoxicity of CuB-MMs-CPs was assessed using the MTT assay. HepG-2 cells were seeded onto 96-well plates in 200 μL. DMEM was applied to obtain a concentration of 5000 cells per well and cultured at 37 °C, 5% CO2 for 24 h to allow attachment of cells. […] The percentage of cell viability was calculated on the basis of the optical density values at 490 nm of the sample wells, which contained cells treated with the culture medium."}, "HepG-2 xenografts": {"system": "HepG-2 xenografts", "test": "Antitumor study in nude mice bearing HepG-2 xenografts", "type": "in vivo", "conditions": "oral, equivalent CuB dose 2 mg/kg, versus saline", "method": "For in vivo study, we used a nude mouse as a model for HepG-2 […]. […] All treatments were orally administered on days 1, 3, 5, 7, 9, 11, 13, 15, 17, 19, and 21. The volume of the tumor was measured daily. On day 22, mice were killed and tumors were weighed."}},
  "data": [
    {"substance": "Cucurbitacin B [CuB]", "values": [
      {"measurement": "IC50", "setting": "HepG-2 cells", "value": "104 ± 50.3", "unit": "nM"},
      {"measurement": "Tumor growth", "setting": "HepG-2 xenografts", "value": "slightly slower growth than animals administered with saline"}
    ]}
  ]
}
